According to US20240293337A1, “USE OF DOXERCALCIFEROL TO TREAT AND/OR PREVENT UTERINE FIBROIDS OR POLYCYSTIC OVARY SYNDROME” (priority 2023, published 2024):

How the values were obtained:
SW872 cells [1] = assay: SW872 immortalized adipocyte model, cell morphology and cell number after 24 h treatment; type: cell-based, human; details: 100 nM
Procedure: Human liposarcoma SW872 are used as an in vitro cell culture model of adipocytes to assess adipocyte proliferation. SW872 cells are purchased from (ATCC). These cells are isolated from a surgical specimen of a […] removed from a donor. The cells are cultured per the recommended guidelines. The cells are subcultured at a ratio of 1:4, resulting in a cell density of approximately 1×10^6 in T75 flasks. SW872 cells are subcultured in T75 flasks for 24 hours. Cells are then treated for 24 hours with serum free basal media as a control or doxercalciferol at 1 nM, 10 nM, or 100 nM diluted in basal media (serum-free). After the incubation period, cells are imaged and analyzed for morphology and cell count. Cells are then collected for analysis of adipogenesis-related gene expression and cell culture media are collected for analysis of obesity related cytokines.

SW872 cells [2] = assay: Adipogenesis gene expression in SW872 cells (qRT-PCR array); type: cell-based, human; details: 10 nM, 24 hours
Procedure: SW872 cells are subcultured in T75 flasks for 24 hours. Cells are then treated for 24 hours with serum free basal media as a control or doxercalciferol at 1 nM, 10 nM, or 100 nM diluted in basal media (serum-free). After the incubation period, cells are imaged and analyzed for morphology and cell count. Cells are then collected for analysis of adipogenesis-related gene expression and cell culture media are collected for analysis of obesity related cytokines. RNA is extracted from SW872 cells treated with doxercalciferol. RNA extraction is done using TRIzol (Invitrogen, USA) according to the manufacturer's instructions. The concentration and purity of the extracted RNA is checked using a NanoDrop spectrometer (Thermo Scientific, MA, USA). Quantitative real-time PCR (qPCR) of adipogenesis related genes in SW872 cells is performed using a RT^2 Profiler™ PCR Array Human Apidogenesis according to the manufacturer's instructions (Qiagen, Sciences Inc., MD, USA).

[3] = system: letrozole induced polycystic ovary syndrome (PCOS) mouse models; assay: Glucose tolerance test in PCOS mice; type: in vivo, C57BL/6 mice; details: 300 ng/kg i.p. 3 times per week, 120 minutes after IP glucose injection
Procedure: At 3.5 weeks of age, mice (n=11/group) are subcutaneously implanted with a placebo or 5 mg letrozole (LTZ) pellet (Innovative Research of America, Sarasota, FL, USA), which provides a constant release of LTZ (50 μg/day). Body weight is monitored weekly before and post-implantation. Body weight and insulin resistance (measured by glucose tolerance test, GTT) are used to monitor development of PCOS characteristics.
(§1) Five weeks after placebo or LTZ pellet implantation, mice undergo intraperitoneal injection of doxercalciferol (300 ng/kg) or saline 3 times per week for 6 weeks. Six weeks after doxercalciferol treatment, the mice are anesthetized and ovary, uterus, gonadal white fat, kidney, and liver tissue are collected. Each of these tissues are fixed in 4% paraformaldehyde for further histological analysis.
Glucose tolerance testing is performed on healthy, PCOS, and treated mice 3 weeks after doxercalciferol treatment. Mice are fasting for 16 h (5 p.m. to 9 a.m.), with free access to drinking water, after which they receive an intra-peritoneal (i.p.) injection of D-glucose (2.0 g/kg body weight). Blood glucose level is measured at 0, 15, 30, 60, 90, and 120 minutes following glucose injection using a Bayer glucose monitor (Roche Diagnostics Corp, IN, USA).

[4] = Serum chemistry in PCOS mice; type: in vivo, C57BL/6 mice; details: PCOS mice treated with doxercalciferol, n 7
Procedure: as §1
Blood is collected from all groups by cardiac exsanguination under isoflurane anesthesia: serum is separated and stored at −80° C. Serum chemistry analysis including BUN, ALT, ALP, AST, TBIL, calcium, TP, ALB, and NA+ is performed in University of Chicago Animal Resource Center (UC ARC) with VETSCAN® VS2 Chemistry Analyzer (Zoetis).

[5] = system: patient derived xenograft (PDX) mouse model of uterine fibroids (UF); assay: Tumor growth in patient derived xenograft (PDX) mouse model of uterine fibroids; type: in vivo, NOD/SCID mice; details: PDX UF mice, 300 ng/kg i.p. 3 times per week, 6 weeks
Procedure: Female NOD/SCID are housed in a vivarium for 1 week under specific pathogen-free conditions. The animal experiment protocol for this study is approved, and all animal experiments are performed in compliance with policies and guidelines for use of laboratory animals. UF samples are obtained from African-American female patients with UF (n=4). This human UF tissue is xenografted into female mice that have been hormonally supplemented with progesterone and estradiol (n=2 mice/patient). Tumor size is measured at implantation. After xenograft mice undergo intraperitoneal injection of doxercalciferol (300 ng/kg, 3 times per week) or saline for 6 weeks. Body weight is monitored weekly during doxercalciferol treatment. Six weeks after doxercalciferol treatment insulin resistance is assessed using GTT and then mice are anesthetized and blood is collected to measure liver enzyme and AMH levels, ovary tissue is removed for histological analysis, total RNA is extracted for sequencing, and tumor size is measured with a digital caliper.

[6] = Body weight change in PDX UF mice; type: in vivo, NOD/SCID mice; details: 300 ng/kg i.p. 3 times per week, 6 weeks
Procedure: (§2) After xenograft mice undergo intraperitoneal injection of doxercalciferol (300 ng/kg, 3 times per week) or saline for 6 weeks. Body weight is monitored weekly during doxercalciferol treatment. Six weeks after doxercalciferol treatment insulin resistance is assessed using GTT and then mice are anesthetized and blood is collected to measure liver enzyme and AMH levels, ovary tissue is removed for histological analysis, total RNA is extracted for sequencing, and tumor size is measured with a digital caliper.

[7] = Serum measurements in PDX UF mice (liver enzymes, calcium, AMH); type: in vivo, NOD/SCID mice
Procedure: as §2
Blood is collected from all groups by cardiac exsanguination under isoflurane anesthesia: serum is separated and stored at −80° C. Serum levels are measured for AMH, ALT, and total bilirubin.

C=C1/C(=C\C=C2/CCC[C@]3(C)[C@@H]([C@H](C)/C=C/[C@H](C)C(C)C)CC[C@@H]23)C[C@@H](O)C[C@@H]1O [doxercalciferol]
cell morphology (SW872 cells [1]): most cells being dead
cell number (SW872 cells [1]; vs control): significant reduction in cells
CEBP relative gene expression (SW872 cells [2]): significantly upregulated
CEBPD relative gene expression (SW872 cells [2]): significantly upregulated
PRDM16 relative gene expression (SW872 cells [2]): significantly downregulated
RXRA relative gene expression (SW872 cells [2]): significantly upregulated
SREBF1 relative gene expression (SW872 cells [2]): significantly downregulated
WNT1 relative gene expression (SW872 cells [2]): significantly downregulated
WNT10B relative gene expression (SW872 cells [2]): significantly downregulated
expression of most adipogenesis genes (SW872 cells [2]; not significant for most genes): downregulated
blood glucose levels, vs control mice [3]: elevated levels compared to control mice
blood glucose levels, vs untreated PCOS mice [3]: significantly lower blood glucose levels
ALB, Mean [4]: 3.9 g/dL
ALP, Mean [4]: 76 U/L
ALT, Mean [4]: 66 U/L
AST, Mean [4]: 144 U/L
BUN, Mean [4]: 22 mg/dL
CA, Mean [4]: 12.9 mg/dL
NA+, Mean [4]: 149 mmol/L
TBIL, Mean [4]: 0.4 mg/dL
TP, Mean [4]: 4.7 g/dL
tumor growth (significant reduction, down to) [5]: 55.6%
decrease in body weight [6]: 24%
calcium levels vs reference range for NOD CB17-Prkdc^scid/NcrCrl mice [7]: overlap with the reference range
calcium level, Mean ([7]; N 4): 11.93
ALT level ([7]; vs control): no significant effect
AMH serum levels ([7]; vs control): no significant effect
AST level ([7]; vs control): no significant effect
total bilirubin level ([7]; vs control): no significant effect
